What was measured:
Assay type in all cases: cell-based
[1] = test system: PDGFRβ NIH-3T3 cells; test: PDGF ligand-dependent cell proliferation; details: Mus musculus, NIH3T3; NIH-3T3 expressing human PDGFRβ, PDGF BB 50 ng/ml, 72 hours, MTS
Description: Measurement of in vivo inhibition on receptor ligand-dependent cell proliferation: PDGF dependent cell proliferation:
NIH-3T3 mouse fibroblasts cell line engineered to stably express human PDGFRβ was constructed and used to evaluate PDGF dependent cell proliferation. PDGFRβ NIH-3T3 cells were plated into 96-well plates at 5,000 per well and incubated with serum-free medium for 24 hours. Compounds and PDGF BB (50 ng/ml) were added and incubated for 72 hours in serum-free medium. The effects on proliferation were determined by addition of MTS reagent (Promega) according to the instruction, incubation for 2 hours at 37° C. in CO2 incubator, and record the absorbance at 490 nm using an ELISA plate reader.

[2] = test system: U937; test: Tumor cell proliferation (MTS), U937; details: Homo sapiens, U-937, U937, 72 hours
Description: (§1) Measurement of in vivo cell proliferation:
(§2) Tumor cells were trypsinized and plated into 96-well plates at 3,000 per well and incubated in complete medium with 10% FBS for 24 hours. Compounds were added over a final concentration range of 100 μmol/L to 100 nmol/L in 0.1% DMSO and incubated for 72 hours in complete medium. The effects on proliferation were determined by addition of MTS reagent (Promega) according to the instruction, incubation for 2 hours at 37° C. in CO2 incubator, and record the absorbance at 490 nm using an ELISA plate reader.

[3] = test system: MCF7; test: Tumor cell proliferation (MTS), MCF7; details: Homo sapiens, MCF7, 72 hours
Description: as §1, §2

[4] = test system: HL60; test: Tumor cell proliferation (MTS), HL60; details: Homo sapiens, HL-60, HL60, 72 hours
Description: as §1, §2

[5] = test system: Jurkat; test: Tumor cell proliferation (MTS), Jurkat; details: Homo sapiens, 72 hours
Description: as §1, §2

[6] = test system: Mo7e cells (SCF dependent); test: c-Kit ligand (SCF) dependent cell proliferation; details: SCF 50 ng/ml, 72 hours, MTS
Description: SCF dependent cell proliferation:
Mo7e cells (SCF dependent) were plated into 96-well plates at 15000 per well and incubated in 1640 medium with 10% FBS and SCF (50 ng/ml) for 24 hours. Compounds were added and incubated for 72 hours at 37° C. in CO2 incubator. The effects on proliferation were determined by addition of MTS reagent (Promega) according to the instruction, incubation for 2 hours at 37° C. in CO2 incubator, and record the absorbance at 490 nm using an ELISA plate reader.

Structure (SMILES)	GI50 [2]	GI50 [3]	GI50 [4]	GI50 [5]	GI50 [1]	GI50 [6]
Cc1[nH]c(/C=C2\C(=O)Nc3ccc(F)cc32)c(C)c1C(=O)NCCCCNc1ccc(C(=O)Nc2ccc(F)cc2N)cn1 [Example 19, (Z)-N-(2-amino-4-fluorophenyl)-6-(4-(2-((5-fluoro-2-oxoindolin-3-ylidene)-methyl)-3,5-dimethyl-1H-pyrrole-4-carboxamido)butylamino)nicotinamide]	> 60 µM	> 60 µM	> 60 µM	> 60 µM	> 1000 nM	42 nM
Cc1[nH]c(/C=C2\C(=O)Nc3ccc(F)cc32)c(C)c1C(=O)NCCNc1ccc(C(=O)Nc2ccccc2N)cn1 [Example 3, (Z)-N-(2-aminophenyl)-6-(2-(2-((5-fluoro-2-oxoindolin-3-ylidene)methyl)-3,5-dimethyl-1H-pyrrole-4-carboxamido)ethylamino)nicotinamide]	> 60 µM	> 60 µM	4.15 µM	> 60 µM	> 1000 nM	126 nM
Cc1[nH]c(/C=N/N=C2\C(=O)Nc3ccc(F)cc32)c(C)c1C(=O)NCCNc1ccc(C(=O)Nc2ccccc2N)cn1 [Example 4, N-(2-aminophenyl)-6-(2-(2-(((5-fluoro-2-oxoindolin-3-ylidene)hydrazono)-methyl)-3,5-dimethyl-1H-pyrrole-4-carboxamido)ethylamino)nicotinamide]	> 60 µM	> 60 µM	> 60 µM	> 60 µM	> 1000 nM	> 1000 nM
Cc1[nH]c(/C=N/N=C2\C(=O)Nc3ccc(F)cc32)c(C)c1C(=O)NCCCCNc1ccc(C(=O)Nc2ccccc2N)cn1 [Example 10, N-(2-aminophenyl)-6-(4-(2-(((5-fluoro-2-oxoindolin-3-ylidene)hydrazono)-methyl)-3,5-dimethyl-1H-pyrrole-4-carboxamido)butylamino)nicotinamide]	> 60 µM	> 60 µM	6.28 µM	> 60 µM	> 1000 nM	> 1000 nM
Cc1[nH]c(/C=C2\C(=O)Nc3ccc(F)cc32)c(C)c1C(=O)NCCCNc1ccc(C(=O)Nc2ccccc2N)cn1 [Example 6, (Z)-N-(2-aminophenyl)-6-(3-(2-((5-fluoro-2-oxoindolin-3-ylidene)methyl)-3,5-dimethyl-1H-pyrrole-4-carboxamido)propylamino)nicotinamide]	> 60 µM	> 60 µM	> 60 µM	> 60 µM	> 1000 nM	46 nM
Cc1[nH]c(/C=N/N=C2\C(=O)Nc3ccc(F)cc32)c(C)c1C(=O)NCCCNc1ccc(C(=O)Nc2ccc(F)cc2N)cn1 [Example 17, N-(2-amino-4-fluorophenyl)-6-(3-(2-(((5-fluoro-2-oxoindolin-3-ylidene)-hydrazono)methyl)-3,5-dimethyl-1H-pyrrole-4-carboxamido)propylamino)nicotinamide]	> 60 µM	> 60 µM	> 60 µM	> 60 µM	> 1000 nM	> 1000 nM
Cc1[nH]c(/C=C2\C(=O)Nc3ccc(F)cc32)c(C)c1C(=O)NCCNc1ccc(C(=O)Nc2ccc(F)cc2N)cn1 [Example 13, (Z)-N-(2-amino-4-fluorophenyl)-6-(2-(2-((5-fluoro-2-oxoindolin-3-ylidene)-methyl)-3,5-dimethyl-1H-pyrrole-4-carboxamido)ethylamino)nicotinamide]	> 60 µM	> 60 µM	> 60 µM	> 60 µM	> 1000 nM	151 nM

Continued, in another order:

GI50 [2]	GI50 [3]	GI50 [4]	GI50 [5]	Structure (SMILES)	GI50 [1]	GI50 [6]
> 60 µM	> 60 µM	> 60 µM	> 60 µM	Cc1[nH]c(/C=C2\C(=O)Nc3ccc(F)cc32)c(C)c1C(=O)NCCCNc1ccc(C(=O)Nc2ccc(F)cc2N)cn1 [Example 16, (Z)-N-(2-amino-4-fluorophenyl)-6-(3-(2-((5-fluoro-2-oxoindolin-3-ylidene)-methyl)-3,5-dimethyl-1H-pyrrole-4-carboxamido)propylamino)nicotinamide]	> 1000 nM	105 nM
> 60 µM	> 60 µM	1.27 µM	> 60 µM	Cc1[nH]c(/C=C2\C(=O)Nc3ccc(F)cc32)c(C)c1C(=O)NCCCCNc1ccc(C(=O)Nc2ccccc2N)cn1 [Example 9, (Z)-N-(2-aminophenyl)-6-(4-(2-((5-fluoro-2-oxoindolin-3-ylidene)methyl)-3,5-dimethyl-1H-pyrrole-4-carboxamido)butylamino)nicotinamide]	105 nM	32 nM
> 60 µM	> 60 µM	7.91 µM	> 60 µM	Cc1[nH]c(/C=N/N=C2\C(=O)Nc3ccc(F)cc32)c(C)c1C(=O)NCCCNc1ccc(C(=O)Nc2ccccc2N)cn1 [Example 7, N-(2-aminophenyl)-6-(3-(2-(((5-fluoro-2-oxoindolin-3-ylidene)hydrazono)-methyl)-3,5-dimethyl-1H-pyrrole-4-carboxamido)propylamino)nicotinamide]	> 1000 nM	> 1000 nM
> 60 µM	> 60 µM	> 60 µM	> 60 µM	Cc1[nH]c(/C=N/N=C2\C(=O)Nc3ccc(F)cc32)c(C)c1C(=O)NCCNc1ccc(C(=O)Nc2ccc(F)cc2N)cn1 [Example 14, N-(2-amino-4-fluorophenyl)-6-(2-(2-(((5-fluoro-2-oxoindolin-3-ylidene)-hydrazono)methyl)-3,5-dimethyl-1H-pyrrole-4-carboxamido)ethylamino)nicotinamide]	> 1000 nM	> 1000 nM
> 60 µM	> 60 µM	> 60 µM	> 60 µM	Cc1[nH]c(/C=N/N=C2\C(=O)Nc3ccc(F)cc32)c(C)c1C(=O)NCCCCNc1ccc(C(=O)Nc2ccc(F)cc2N)cn1 [Example 20, N-(2-amino-4-fluorophenyl)-6-(4-(2-(((5-fluoro-2-oxoindolin-3-ylidene)-hydrazono)methyl)-3,5-dimethyl-1H-pyrrole-4-carboxamido)butylamino)nicotinamide]	> 1000 nM	> 1000 nM

Source: US8158656B2, “2-indolinone derivatives as multi-target protein kinase inhibitors and histone deacetylase inhibitors” (Shenzhen Chipscreen Biosciences Ltd., priority 2008, dated 2012)
